Reference: patent US20130196989A1, “COMPOSITIONS AND METHODS FOR INDUCING CELL DEDIFFERENTIATION” (The Scripps Research Institute, priority 2003, published 2013)

Legend:
[1] = test system: C2C12 myoblast cells
Experimental: Mammalian cells (e.g., C2C12 myoblast cells) are treated with a suitable amount of a test compound (e.g., 5 μM reversine) in DMEM supplemented with 10% FBS for four days. The compound is then removed and medium is changed to ODM every two days. After seven days following induction of osteogenesis, the cells are washed with PBS (200 μL, 3 times) and fixed with 10% formalin solution (Sigma) for 20 min. The fixed cells are then washed with PBS (200 μL, 3 times) and stained with the Alkaline Phosphatase Staining Kit 86R (Sigma) as directed by the manufacturer. Images are taken on a Nikon Eclipse TE2000 microscope at 200 fold magnification.
(§1) After four days of treatment with reversine, the compound was removed and cells were then grown in osteogenic differentiation medium (ODM) or adipogenic differentiation medium (ADM).

[2] = test system: C2C12 myoblast cells; remark: listed apart in the source
Experimental: Mammalian cells (e.g., C2C12 myoblast cells) were treated with a suitable amount of a test compound (e.g., 5 μM reversine) in DMEM supplemented with 10% FBS for four days. The compound was then removed and medium was changed to adipogenic differentiation medium (ADM) containing 0.5 mM 3-isobutyl-1-methylxanthine, 2.5 μg/ml insulin, and 0.5 μM dexamethasone. Typically, the ADM is replaced every two days. After seven days following induction of adipogenesis, the cells are washed with PBS (200 μL, 3 times) and fixed with 10% formalin solution (Sigma) for 10 min. The fixed cells are then washed with PBS (200 μL, 3 times) and stained with the 0.7% Oil Red O (Sigma) as directed by the manufacturer. Images are taken on a Nikon Eclipse TE2000 microscope at 200 fold magnification.
as §1

[3] = test system: C2C12 cells; settings: single-cell colonies, 6 days of treatment, portions cultured in ODM and ADM
Experimental: Clonal analysis is used to verify that reversine can induce dedifferentiation at the single cell level. C2C12 cells were cultured from a single cell and treated with reversine. After 6 days of treatment, each colony was divided into two portions. One portion was cultured in ODM and another portion was cultured in ADM. The cells were then analyzed using the staining assays described in Example 1.

[4] = test system: C2C12 myoblasts cells; assay: Cell death at effective concentration
Experimental: as §1

[5] = test system: C2C12 myoblast cells; settings: 5 μM compound for four days, then seven days in osteogenic inducing medium; BBTP substrate
Experimental: C2C12 cells (ATCC CRL-1772) are cultured in DMEM (Gibco) supplemented with 10% fetal bovine serum (HyClone) at 37° C. in 5% CO2.
For the small molecule screen, proliferating C2C12 cells are plated into black 384-well tissue culture plates (Greiner) at a density of 1,000 cells/well in DMEM with 10% FBS. […] After the cells are treated with test compounds for four days, the test compound is removed and the cell culture medium is changed to osteogenic differentiation medium (ODM) containing 50 μg/ml ascorbic acid 2-phosphate, 0.1 μM dexamethasone and 10 mM β-glycerophosphate. Cell culture medium is typically changed every two days. After seven additional days of culture in ODM, the ODM is removed and cells are lysed by incubation in 10 μL passive lysis buffer (Promega) for 10 min, followed by addition of 10 μL alkaline phosphatase substrate solution (AttoPhos, Promega). After a 15 minute room temperature incubation, fluorescence intensity is read on an Acquest (Molecular Devices) as directed by the manufacturer. […]

[6] = test system: C2C12 myoblast cells; settings: 5 μM reversine, day four of compound treatment

c1nc2nc(Nc3ccc(N4CCOCC4)cc3)nc(NC3CCCCC3)c2[nH]1 [Compound A, 2-(4-Morpholinoanilino)-6-cyclohexylamino-purine]
cells stained positive for ALP ([1]; four days of treatment, compound removed, ODM conditions, end of day seven): 35% | osteogenesis activity of compound alone ([1]; in the absence of ODM): no osteogenesis activity | cells with fat cell morphology, stained positive with Oil Red O ([2]; four days of treatment, compound removed, ADM condition, end of day seven): 40% | adipogenesis activity of compound alone ([2]; in the absence of ADM): no adipogenesis activity | colonies determined to be multipotent [3]: 56 of 97 | cell death [4]: no significant cell death | effective concentration ([4]; C2C12 dedifferentiation): 0.5 to 5 µM | level of ALP activity relative to the DMSO control treatment [5]: 7 fold | myogenic specific markers such as MyoD and myosin [6]: began to disappear | myotube formation [6]: completely inhibited
